Earlier results on one compound are cited in patent publication US20220305127A1, “PYRROLOBENZODIAZEPINE ANTIBODY CONJUGATES” (priority 2017, published 2022).

For this data set the following is noted: Phase I clinical evaluation.

SMILES strings stand for the structures.

`C=C1C[C@H]2C=Nc3cc(OCCCOc4cc5c(cc4OC)C(=O)N4CC(=C)C[C@H]4C=N5)c(OC)cc3C(=O)N2C1` [SJG-136]: the “DNA damage in circulating lymphocytes” value is listed as “noted at all doses”; the adverse effects result was “vascular leak syndrome, peripheral edema, liver toxicity and fatigue”; the maximum tolerated dose was 45 μg/m^2.
